Measured values taken from paper PMC4303209, “A novel phosphatidylinositol 3-kinase (PI3K) inhibitor directs a potent FOXO-dependent, p53-independent cell cycle arrest phenotype characterized by the differential induction of a subset of FOXO-regulated genes” (Breast Cancer Research : BCR, 2014).

System: MCF-7 breast cancer cells
Experiment: Microarray gene expression analysis (Agilent whole human genome 4 x 44K; compound vs DMSO, LIMMA log2 fold change)
Format: cell-based
Conditions: Apoptosis genes

Cn1ncc2c(N3CCOCC3)nc(-c3cccc(O)c3)nc21 [ETP-45658]
CTNNA1 log2FC (Gene 1495): 0.398
CTNNB1 log2FC (Gene 1499): 0.236
CTSB log2FC (Gene 1508): -0.231
CTSH log2FC (Gene 1512): -0.192
CTSL log2FC (Gene 1514): 0.446
CX3CR1 log2FC (Gene 1524): 0.181
CYLD log2FC (Gene 1540): 0.499
DAB2 log2FC (Gene 1601): -0.232
DAD1 log2FC (Gene 1603): -0.542
DAP log2FC (Gene 1611): -0.178
DAPK1 log2FC (Gene 1612): 0.238
DAPK3 log2FC (Gene 1613): -0.132
DBH log2FC (Gene 1621): -0.059
DCC log2FC (Gene 1630): 0.044
GADD45A log2FC (Gene 1647): -0.416
DDIT3 log2FC (Gene 1649): 2.364
DDX3X log2FC (Gene 1654): -1.156
DDX5 log2FC (Gene 1655): -0.656
DFFA log2FC (Gene 1676): -0.316
DFNA5 log2FC (Gene 1687): 0.156
DHCR24 log2FC (Gene 1718): -0.643
DHODH log2FC (Gene 1723): -0.210
NQO1 log2FC (Gene 1728): 0.303
DLX1 log2FC (Gene 1745): -0.429
DNASE1 log2FC (Gene 1773): 0.250
DNASE1L3 log2FC (Gene 1776): -0.141
DNASE2 log2FC (Gene 1777): 0.536
DOCK1 log2FC (Gene 1793): 0.462
DPEP1 log2FC (Gene 1800): -0.068
ATN1 log2FC (Gene 1822): -0.501
DSG1 log2FC (Gene 1828): -0.456
DSG2 log2FC (Gene 1829): 0.346
DSG3 log2FC (Gene 1830): -0.092
TSC22D3 log2FC (Gene 1831): 0.689
DSP log2FC (Gene 1832): 0.613
DUSP1 log2FC (Gene 1843): -0.931
DUSP2 log2FC (Gene 1844): -2.124
DUSP6 log2FC (Gene 1848): -2.175
E2F1 log2FC (Gene 1869): -0.356
E2F2 log2FC (Gene 1870): -0.581
ECT2 log2FC (Gene 1894): 1.058
EDN1 log2FC (Gene 1906): 0.169
EDNRA log2FC (Gene 1909): -0.061
EDNRB log2FC (Gene 1910): -0.075
EEF1A2 log2FC (Gene 1917): -0.382
EFNA5 log2FC (Gene 1946): -0.086
EGFR log2FC (Gene 1956): 0.311
EGR1 log2FC (Gene 1958): -3.897
EGR2 log2FC (Gene 1959): -0.340
EPHA2 log2FC (Gene 1969): -2.195
EIF5A log2FC (Gene 1984): -0.137
ENDOG log2FC (Gene 2021): -0.357
EP300 log2FC (Gene 2033): -0.215
EPHA7 log2FC (Gene 2045): -0.083
CLN8 log2FC (Gene 2055): -0.161
EPO log2FC (Gene 2056): -0.146
ERBB3 log2FC (Gene 2065): 0.557
ERBB4 log2FC (Gene 2066): 0.141
ERCC2 log2FC (Gene 2068): -0.566
ERCC3 log2FC (Gene 2071): -0.084
ERCC5 log2FC (Gene 2073): 0.896
ERCC6 log2FC (Gene 2074): 0.369
ERN1 log2FC (Gene 2081): -0.168
ESR1 log2FC (Gene 2099): -0.121
ESR2 log2FC (Gene 2100): -0.067
ETS1 log2FC (Gene 2113): -0.590
EYA2 log2FC (Gene 2139): -0.248
F2R log2FC (Gene 2149): 0.260
F3 log2FC (Gene 2152): -0.164
PTK2B log2FC (Gene 2185): 0.101
FCER1G log2FC (Gene 2207): -0.662
FGD1 log2FC (Gene 2245): -0.405
FGF4 log2FC (Gene 2249): -0.171
FGF8 log2FC (Gene 2253): -0.131
FGF10 log2FC (Gene 2255): 0.033
FGFR1 log2FC (Gene 2260): -0.387
FGFR3 log2FC (Gene 2261): -0.382
FGFR2 log2FC (Gene 2263): 1.543
FHIT log2FC (Gene 2272): -0.370
FHL2 log2FC (Gene 2274): -0.173
FOXC1 log2FC (Gene 2296): -0.876
FOXC2 log2FC (Gene 2303): -0.613
FLT3 log2FC (Gene 2322): 0.165
FLT4 log2FC (Gene 2324): -0.341
FNTA log2FC (Gene 2339): 1.051
FXN log2FC (Gene 2395): -0.579
FRZB log2FC (Gene 2487): 0.110
FYN log2FC (Gene 2534): -0.127
G6PD log2FC (Gene 2539): -0.236
GABRA5 log2FC (Gene 2558): 0.036
GABRB2 log2FC (Gene 2561): -0.066
GABRB3 log2FC (Gene 2562): 0.054
GAS1 log2FC (Gene 2619): 0.711
GAS2 log2FC (Gene 2620): 0.183
GATA1 log2FC (Gene 2623): -0.041
GATA3 log2FC (Gene 2625): -0.140
GDNF log2FC (Gene 2668): 0.348
B4GALT1 log2FC (Gene 2683): 0.129
GJA1 log2FC (Gene 2697): -0.390
GCLC log2FC (Gene 2729): 1.033
GLI3 log2FC (Gene 2737): 0.306
GLO1 log2FC (Gene 2739): 0.300
GML log2FC (Gene 2765): -0.233
GNB1 log2FC (Gene 2782): -0.075
GNGT1 log2FC (Gene 2792): 0.035
GNRH1 log2FC (Gene 2796): 0.243
SFN log2FC (Gene 2810): -1.182
GPLD1 log2FC (Gene 2822): -0.136
CXCR3 log2FC (Gene 2833): -0.730
GRK5 log2FC (Gene 2869): 0.091
MKNK2 log2FC (Gene 2872): -0.750
GPX1 log2FC (Gene 2876): 0.224
GRID2 log2FC (Gene 2895): -0.054
GRIK2 log2FC (Gene 2898): 0.090
GRIK5 log2FC (Gene 2901): -0.286
GRIN1 log2FC (Gene 2902): -0.518
GRIN2A log2FC (Gene 2903): -0.037
NR3C1 log2FC (Gene 2908): 1.303
GRM4 log2FC (Gene 2914): -0.041
PDIA3 log2FC (Gene 2923): -0.131
GSK3A log2FC (Gene 2931): -0.246
GSK3B log2FC (Gene 2932): -0.607
GSN log2FC (Gene 2934): -0.206
GSTP1 log2FC (Gene 2950): 0.120
MSH6 log2FC (Gene 2956): 0.235
GZMH log2FC (Gene 2999): -0.228
GZMA log2FC (Gene 3001): -0.081
GZMB log2FC (Gene 3002): -0.203
GZMM log2FC (Gene 3004): -0.523
H1F0 log2FC (Gene 3005): 0.826
HCK log2FC (Gene 3055): -0.046
HDAC1 log2FC (Gene 3065): -0.487
HDAC2 log2FC (Gene 3066): 0.164
HELLS log2FC (Gene 3070): 0.388
NCKAP1L log2FC (Gene 3071): 0.079
HGF log2FC (Gene 3082): -0.369
NRG1 log2FC (Gene 3084): -1.147
HIC1 log2FC (Gene 3090): -0.118
HIF1A log2FC (Gene 3091): 0.141
HIP1 log2FC (Gene 3092): -0.264
HINT1 log2FC (Gene 3094): 0.229
HK2 log2FC (Gene 3099): -1.193
HMGB1 log2FC (Gene 3146): 0.513
HMGB2 log2FC (Gene 3148): 1.232
HMGCR log2FC (Gene 3156): 0.305
HMOX1 log2FC (Gene 3162): 1.167
NR4A1 log2FC (Gene 3164): -0.616
HOXA5 log2FC (Gene 3202): 0.402
HOXA13 log2FC (Gene 3209): 0.081
HRAS log2FC (Gene 3265): -0.664
HRG log2FC (Gene 3273): 0.066
PRMT2 log2FC (Gene 3275): 0.361
HSPA1A log2FC (Gene 3303): -2.764
HSPA5 log2FC (Gene 3309): -0.358
HSPB1 log2FC (Gene 3315): -0.158
HSP90AA1 log2FC (Gene 3320): 1.066
HSP90AB1 log2FC (Gene 3326): -0.153
